How the values were obtained:
[1] = biological target: terminal deoxynucleotidyl transferase (Homo sapiens, UniProt P04053); conditions: cited from earlier work
Reverse transcriptase = conditions: cited from earlier work
DU145 = assay: monolayer proliferation assay, modified propidium iodide assay; type: cell-based, human; conditions: DU145 (prostate, PTEN positive), 4 days continuous exposure
Description: (§1) In vitro evaluation of compounds for anticancer activity in a panel of human tumour cell lines in a monolayer proliferation assay was carried out at the Oncotest Testing Facility, Institute for Experimental Oncology, Oncotest GmbH, Freiburg.
(§2) The Oncotest cell lines are established from human tumor xenografts as described by Roth et al., (1999). The origin of the donor xenografts was described by Fiebig et al., (1999). Other cell lines are either obtained from the NCI (DU145, MCF-7) or purchased from DSMZ, Braunschweig, Germany.
(§3) All cell lines, unless otherwise specified, were grown at 37° C. in a humidified atmosphere (95% air, 5% CO2) in a ‘ready-mix’ medium containing RPMI 1640 medium, 10% fetal calf serum, and 0.1 mg/mL gentamicin (PAA, Cölbe, Germany).
(§4) A modified propidium iodide assay was used to assess the effects of the test compound(s) on the growth of human tumour cell lines (Dengler et al., (1995)).
(§5) Briefly, cells were harvested from exponential phase cultures by trypsinization, counted and plated in 96 well flat-bottomed microtitre plates at a cell density dependent on the cell line (5-10.000 viable cells/well). After 24 h recovery to allow the cells to resume exponential growth, 0.010 mL of culture medium (6 control wells per plate) or culture medium containing the 11-O-desmethylmacbecin analogue were added to the wells. Each concentration was plated in triplicate. Compounds were applied in two concentrations (1 μg/mL and 10 μg/mL). Following 4 days of continuous exposure, cell culture medium with or without test compound was replaced by 0.2 mL of an aqueous propidium iodide (PI) solution (7 mg/L). To measure the proportion of living cells, cells were permeabilized by freezing the plates. After thawing the plates, fluorescence was measured using the Cytofluor 4000 microplate reader (excitation 530 nm, emission 620 nm), giving a direct relationship to the total number of viable cells. Growth inhibition was expressed as treated/control×100 (% T/C).
(§6) In vitro evaluation of the test compounds for anticancer activity in a panel of human tumour cell lines in a monolayer proliferation assay was carried out as described in the general methods using a modified propidium iodide assay.

CNXF 498NL = assay: as above; type: cell-based, human; conditions: CNXF 498NL (CNS), 4 days continuous exposure
Description: as §1, §2, §3, §4, §5, §6

MCF-7 = assay: as above; type: cell-based, human; conditions: MCF-7 (breast), 4 days continuous exposure
Description: as §1, §2, §3, §4, §5, §6

LXF 1121L = assay: as above; type: cell-based, human; conditions: LXF 1121L (lung, large cell ca), 4 days continuous exposure
Description: as §1, §2, §3, §4, §5, §6

CXF HT29 = assay: as above; type: cell-based, human; conditions: CXF HT29 (colon), 4 days continuous exposure
Description: as §1, §2, §3, §4, §5, §6

MEXF 394NL = assay: as above; type: cell-based, human; conditions: MEXF 394NL (melanoma), 4 days continuous exposure
Description: as §1, §2, §3, §4, §5, §6

Hsp90 = Hsp90 (Homo sapiens, UniProt P07900); conditions: cited from earlier work

Chain of terminal deoxynucleotidyl transferase (P04053 whole entry, species assumed): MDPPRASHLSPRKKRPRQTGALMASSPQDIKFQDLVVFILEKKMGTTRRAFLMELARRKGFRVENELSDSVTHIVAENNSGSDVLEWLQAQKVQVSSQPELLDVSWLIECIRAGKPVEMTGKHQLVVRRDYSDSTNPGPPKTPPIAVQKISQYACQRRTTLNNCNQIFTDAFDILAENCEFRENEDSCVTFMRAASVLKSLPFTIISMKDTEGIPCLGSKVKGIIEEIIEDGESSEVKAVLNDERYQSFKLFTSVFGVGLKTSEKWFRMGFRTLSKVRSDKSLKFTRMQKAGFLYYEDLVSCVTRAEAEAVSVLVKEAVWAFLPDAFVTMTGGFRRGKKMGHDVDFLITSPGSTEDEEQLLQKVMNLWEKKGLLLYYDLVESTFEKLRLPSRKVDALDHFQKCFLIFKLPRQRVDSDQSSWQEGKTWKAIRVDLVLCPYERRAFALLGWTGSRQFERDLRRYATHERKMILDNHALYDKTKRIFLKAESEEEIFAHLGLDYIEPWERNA

Structure (SMILES) | inhibition of terminal deoxynucleotidyl transferase activity [1] | inhibition of reverse transcriptase activity (Reverse transcriptase) | Test/Control (%) at drug concentration (DU145; 1 μg/mL) [%] | Test/Control (%) at drug concentration (DU145; 10 μg/mL) [%] | Test/Control (%) at drug concentration (CNXF 498NL; 1 μg/mL) [%] | Test/Control (%) at drug concentration (CNXF 498NL; 10 μg/mL) [%] | Test/Control (%) at drug concentration (MCF-7; 1 μg/mL) [%] | Test/Control (%) at drug concentration (MCF-7; 10 μg/mL) [%] | Test/Control (%) at drug concentration (LXF 1121L; 1 μg/mL) [%] | Test/Control (%) at drug concentration (LXF 1121L; 10 μg/mL) [%] | Test/Control (%) at drug concentration (CXF HT29; 1 μg/mL) [%] | Test/Control (%) at drug concentration (CXF HT29; 10 μg/mL) [%] | Test/Control (%) at drug concentration (MEXF 394NL; 1 μg/mL) [%] | Test/Control (%) at drug concentration (MEXF 394NL; 10 μg/mL) [%] | binding affinity to Hsp90, greater than 17-AAG (Hsp90; relative to 17-AAG) [fold] | binding affinity to Hsp90, greater than geldanamycin (Hsp90; relative to geldanamycin) [fold]
CO[C@H]1[C@@H](OC)C[C@H](C)[C@@H](OC)C2=CC(=O)C=C(NC(=O)/C(C)=C/C=C\[C@H](C)[C@@H](OC(N)=O)/C(C)=C/[C@@H]1C)C2=O [Macbecin, macbecin, reference compound] | not inhibited | not inhibited | 13 | 5 | 29 | 14 | 42 | 19 | 30 | 17 | 22 | 8 | 16 | 13 | – | –
CO[C@H]1C[C@H](C)CC2=CC(=O)C=C(NC(=O)/C(C)=C/CC[C@H](C)[C@@H](OC(N)=O)/C(C)=C/[C@H](C)[C@H]1O)C2=O [compound 17, 4,5-dihydro-11-O-desmethyl-15-desmethoxymacbecin] | – | – | 18 | 5 | 35 | 8 | 35 | 5 | 55 | 17 | 52 | 6 | 38 | 4 | – | –
CO[C@H]1C[C@H](C)[C@@H](O)C2=CC(=O)C=C(NC(=O)/C(C)=C/C=C\[C@H](C)[C@@H](OC(N)=O)/C(C)=C/[C@H](C)[C@H]1O)C2=O [compound 14, 11-O-desmethyl-15-O-desmethylmacbecin] | – | – | 78.7 | 35 | 82.7 | 45.3 | 83.7 | 58.7 | 83.3 | 57.7 | 88.7 | 55 | 50.7 | 77 | – | –
CO[C@H]1C[C@H](C)CC2=CC(=O)C=C(NC(=O)/C(C)=C/C=C\[C@H](C)[C@@H](OC(N)=O)/C(C)=C/[C@H](C)[C@H]1O)C2=O [compound 15, 11-O-desmethyl-15-desmethoxymacbecin] | – | – | 16.3 | 6 | 30 | 9 | 49.3 | 13.7 | 57.7 | 11.7 | 37.7 | 9 | 22 | 5 | – | –
CO[C@H]1C[C@H](C)Cc2cc(O)cc(c2)NC(=O)/C=C/CC[C@H](OC)[C@@H](OC(N)=O)/C(C)=C/[C@H](C)[C@H]1O [KOSN1559] | – | – | – | – | – | – | – | – | – | – | – | – | – | – | 8 | 4

Reference: patent US20090117127A1, “Novel Compounds and Methods for Their Production” (priority 2006, published 2009)
